Target: T1, P2X purinoceptor 7 (Homo sapiens, UniProt Q99572)
T1 sequence (Q99572 whole entry): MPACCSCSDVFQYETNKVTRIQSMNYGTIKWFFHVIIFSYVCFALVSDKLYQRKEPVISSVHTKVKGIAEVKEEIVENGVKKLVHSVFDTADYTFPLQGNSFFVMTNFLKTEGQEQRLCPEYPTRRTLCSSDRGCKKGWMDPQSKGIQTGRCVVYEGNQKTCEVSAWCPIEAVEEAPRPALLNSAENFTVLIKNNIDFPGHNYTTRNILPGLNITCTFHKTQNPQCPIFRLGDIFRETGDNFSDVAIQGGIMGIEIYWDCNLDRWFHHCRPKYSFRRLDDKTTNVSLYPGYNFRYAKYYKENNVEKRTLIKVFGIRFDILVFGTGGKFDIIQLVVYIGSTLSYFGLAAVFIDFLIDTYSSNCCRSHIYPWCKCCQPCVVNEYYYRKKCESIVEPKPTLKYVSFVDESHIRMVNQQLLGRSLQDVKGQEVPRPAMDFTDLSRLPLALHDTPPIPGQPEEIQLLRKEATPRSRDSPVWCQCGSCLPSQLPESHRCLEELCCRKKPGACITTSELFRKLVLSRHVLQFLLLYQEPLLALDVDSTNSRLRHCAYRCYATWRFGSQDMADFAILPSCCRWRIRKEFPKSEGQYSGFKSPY
Assay: Antagonist activity at P2X7 receptor (unknown origin)

## O=C(Cn1cc(O)n(-c2ccccc2)c1=O)NCc1ccc(F)cc1Cl
  IC50: < 1 µM

Source: BindingDB's records for doi:10.1016/j.bmc.2013.10.054 (Punjabi University, 2014)
